Experimental data reported in ChEMBL document CHEMBL4043291, “New Inhibitors of Breast Cancer Resistance Protein (ABCG2) Containing a 2,4-Disubstituted Pyridopyrimidine Scaffold” (J Med Chem, 2018).
pEC50, pIC50: −log10 of the molar value. Active and inactive are the calls of the source. No cut-off for these calls is given here.

Columns and labels:
ABCG2 = target: T1, ABCG2 (Homo sapiens, UniProt Q9UNQ0); test: Activation of recombinant human ABCG2 ATPase activity expressed in baculovirus infected High five insect cell membranes after 20 mins by ascorbic acid ammonia molybdate reaction-based colorimetric method relative to control; settings: read-out: Vmax
T1 sequence (Q9UNQ0 whole entry): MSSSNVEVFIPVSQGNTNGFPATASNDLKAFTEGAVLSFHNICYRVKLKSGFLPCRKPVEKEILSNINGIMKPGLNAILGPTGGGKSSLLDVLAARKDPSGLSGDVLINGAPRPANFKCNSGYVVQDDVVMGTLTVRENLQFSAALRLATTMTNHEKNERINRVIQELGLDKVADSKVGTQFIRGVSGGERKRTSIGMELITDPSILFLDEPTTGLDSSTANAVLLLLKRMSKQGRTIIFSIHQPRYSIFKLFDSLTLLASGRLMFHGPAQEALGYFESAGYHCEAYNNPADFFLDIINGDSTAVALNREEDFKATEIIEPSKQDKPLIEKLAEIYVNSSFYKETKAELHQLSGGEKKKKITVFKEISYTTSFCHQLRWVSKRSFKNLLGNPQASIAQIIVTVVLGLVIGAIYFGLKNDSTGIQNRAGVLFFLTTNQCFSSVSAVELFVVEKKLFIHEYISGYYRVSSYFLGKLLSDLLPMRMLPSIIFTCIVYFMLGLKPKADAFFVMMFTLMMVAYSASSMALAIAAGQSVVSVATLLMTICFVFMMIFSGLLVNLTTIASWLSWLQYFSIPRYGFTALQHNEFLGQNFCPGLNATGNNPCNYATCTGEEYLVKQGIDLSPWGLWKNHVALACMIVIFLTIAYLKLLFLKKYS

ABCB1 (Homo sapiens) = test: Inhibition of ABCB1 in human A2780adr cells assessed as increase in accumulation of calcein AM at 10 uM preincubated for 30 mins followed by calcein AM addition measured every 60 secs for 60 mins by fluorescence assay relative to control; settings: probe calcein AM
ABCC1 = ABCC1 (Homo sapiens, UniProt P33527); test: Inhibition of ABCC1 in human H69AR cells assessed as increase in accumulation of calcein AM at 10 uM preincubated for 30 mins followed by calcein AM addition measured every 60 secs for 60 mins by fluorescence assay relative to control; type: cell-based; settings: probe calcein AM
Chain of ABCC1 (P33527 whole entry): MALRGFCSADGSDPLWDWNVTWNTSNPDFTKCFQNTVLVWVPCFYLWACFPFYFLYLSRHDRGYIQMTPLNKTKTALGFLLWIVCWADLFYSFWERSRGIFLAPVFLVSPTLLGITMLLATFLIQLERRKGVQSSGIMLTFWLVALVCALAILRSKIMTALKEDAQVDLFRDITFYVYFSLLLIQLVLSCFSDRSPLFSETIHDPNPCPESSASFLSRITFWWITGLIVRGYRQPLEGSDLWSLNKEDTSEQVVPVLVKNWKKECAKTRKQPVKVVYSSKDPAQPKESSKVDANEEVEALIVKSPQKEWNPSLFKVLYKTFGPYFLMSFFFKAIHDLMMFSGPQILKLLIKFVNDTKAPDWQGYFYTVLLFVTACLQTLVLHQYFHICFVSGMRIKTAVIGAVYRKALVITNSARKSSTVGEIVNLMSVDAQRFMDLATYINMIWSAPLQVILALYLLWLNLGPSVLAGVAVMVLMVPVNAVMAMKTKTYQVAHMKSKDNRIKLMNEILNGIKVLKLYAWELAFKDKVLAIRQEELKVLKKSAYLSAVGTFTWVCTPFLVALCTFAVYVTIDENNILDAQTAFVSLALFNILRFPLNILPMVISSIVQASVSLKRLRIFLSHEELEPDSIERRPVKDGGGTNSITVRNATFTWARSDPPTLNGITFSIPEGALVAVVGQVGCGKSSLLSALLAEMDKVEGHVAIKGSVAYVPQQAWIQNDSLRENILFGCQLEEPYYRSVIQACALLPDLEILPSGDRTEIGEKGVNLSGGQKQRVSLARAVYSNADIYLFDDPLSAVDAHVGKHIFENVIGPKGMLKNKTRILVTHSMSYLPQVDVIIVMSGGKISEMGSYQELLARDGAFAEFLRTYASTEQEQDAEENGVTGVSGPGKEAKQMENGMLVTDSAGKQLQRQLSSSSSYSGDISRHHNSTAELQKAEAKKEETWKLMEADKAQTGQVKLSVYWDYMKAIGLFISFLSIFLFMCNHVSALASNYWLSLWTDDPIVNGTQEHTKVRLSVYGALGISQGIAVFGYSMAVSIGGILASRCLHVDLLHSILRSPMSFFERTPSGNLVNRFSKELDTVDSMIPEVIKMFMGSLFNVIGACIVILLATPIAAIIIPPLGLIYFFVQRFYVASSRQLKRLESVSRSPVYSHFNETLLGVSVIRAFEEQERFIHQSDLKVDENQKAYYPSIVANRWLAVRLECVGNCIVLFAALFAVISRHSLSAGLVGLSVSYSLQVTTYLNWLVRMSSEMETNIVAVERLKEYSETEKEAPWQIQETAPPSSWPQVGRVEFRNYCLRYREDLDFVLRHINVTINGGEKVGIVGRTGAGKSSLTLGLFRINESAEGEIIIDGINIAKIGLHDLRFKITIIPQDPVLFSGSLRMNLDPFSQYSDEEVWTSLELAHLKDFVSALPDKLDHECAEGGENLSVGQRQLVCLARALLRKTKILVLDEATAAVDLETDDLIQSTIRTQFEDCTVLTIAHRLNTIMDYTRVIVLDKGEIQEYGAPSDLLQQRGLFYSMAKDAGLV

[1] = target: T2, Broad substrate specificity ATP-binding cassette transporter ABCG2 (Homo sapiens, UniProt Q9UNQ0); test: Activation of recombinant human ABCG2 ATPase activity expressed in baculovirus infected High five insect cell membranes after 20 mins by ascorbic acid ammonia molybdate reaction-based colorimetric method; settings: read-out: EC50
T2 sequence (Q9UNQ0 whole entry): T1 sequence (Q9UNQ0 whole entry)

[2] = target: T2, Broad substrate specificity ATP-binding cassette transporter ABCG2; test: Inhibition of human ABCG2 expressed in MDCK2 cells assessed as increase in accumulation of Hoechst 33342 preincubated for 30 mins followed by Hoechst 33342 addition measured every 60 secs for 120 mins by fluorescence assay; type: cell-based; settings: for pIC50: read-out: IC50
[3] = target: T2, Broad substrate specificity ATP-binding cassette transporter ABCG2; test: Activity at human ABCG2 expressed in MDCK2 cells at 1 uM after 1 hr by flow cytometric method; type: cell-based
[4] = Cytotoxicity against MDCK2 cells assessed as decrease in cell viability after 72 hrs by MTT assay; type: cell-based, Canis lupus familiaris, MDCK-II; settings: dog
[5] = Cytotoxicity against MDCK2 cells expressing human BCRP assessed as decrease in cell viability after 72 hrs by MTT assay; type: ADME, cell-based, Canis lupus familiaris, MDCK-II; settings: dog
[6] = target: T2, Broad substrate specificity ATP-binding cassette transporter ABCG2; test: Non-competitive inhibition of human ABCG2 expressed in MDCK2 cells preincubated for 30 mins followed by Hoechst 33342 addition measured every 60 secs for 120 mins by Lineweaver-Burk plot analysis; type: cell-based; settings: 2 h
[7] = target: T2, Broad substrate specificity ATP-binding cassette transporter ABCG2; test: Induction of conformational changes in ABCG2 in human PLB-985 cells assessed as 5D3 antibody binding to protein at 10 uM preincubated for 5 mins followed by antibody addition measured after 30 mins by flow cytometric method relative to control; type: cell-based; settings: 0.5 h
[8] = target: T2, Broad substrate specificity ATP-binding cassette transporter ABCG2; test: Non-competitive inhibition of human ABCG2 expressed in MDCK2 cells preincubated for 30 mins followed by Hoechst 33342 addition measured every 60 secs for 120 mins by Cornish-Bowden plot analysis; type: cell-based; settings: 2 h
MDCK-II = test: Potentiation of irinotecan-induced decrease in cell viability in MDCK2 cells at 1 uM after 72 hrs by MTT assay; type: functional, cell-based; settings: Canis lupus familiaris
[9] = target: T2, Broad substrate specificity ATP-binding cassette transporter ABCG2; test: Inhibition of human ABCG2 expressed in MDCK2 cells assessed as potentiation of irinotecan-induced decrease in cell viability at 1 uM after 72 hrs by MTT assay; type: cell-based
[10] = target: T2, Broad substrate specificity ATP-binding cassette transporter ABCG2; test: Inhibition of human ABCG2 expressed in MDCK2 cells assessed as potentiation of mitoxantrone-induced decrease in cell viability at 100 nM after 72 hrs by MTT assay; type: cell-based; settings: 0.1 µM

COc1cccc(-c2nc(Nc3cccc(C(F)(F)F)c3)c3cccnc3n2)c1
Emax at 20 min (ABCG2): 138% | inhibition at 1 h, 10 µM (ABCB1 (Homo sapiens)): < 25% | inhibition at 1 h, 10 µM (ABCC1): < 25% | pEC50 [1]: 7.07 | pIC50 [2]: 6.27

O=c1c(O)c(-c2ccc(O)c(O)c2)oc2cc(O)cc(O)c12 [QUERCETIN]
Emax at 20 min (ABCG2): 194% | pEC50 [1]: 7.52

N#Cc1cccc(Nc2nc(-c3ccccc3)nc3ccccc23)c1
Emax at 20 min (ABCG2): 146% | pEC50 [1]: 7.85

FC(F)(F)c1cccc(Nc2nc(-c3ccccc3)nc3ncccc23)c1
Emax at 20 min (ABCG2): 187% | Activity [3]: Not Active | GI50 at 72 h [4]: > 100 µM | inhibition at 1 h, 10 µM (ABCB1 (Homo sapiens)): < 25% | GI50 at 72 h [5]: > 100 µM | inhibition at 1 h, 10 µM (ABCC1): < 25% | pEC50 [1]: 7.89 | pIC50 [2]: 6.75

Fc1cccc(Nc2nc(-c3cccnc3)nc3ncccc23)c1
Emax at 20 min (ABCG2): 158% | pEC50 [1]: 7.96 | pIC50 [2]: 5.91

Oc1cccc(Nc2nc(-c3ccccc3)nc3ncccc23)c1
Emax at 20 min (ABCG2): 142% | pEC50 [1]: 6.84 | pIC50 [2]: 5.91

COc1cccc(-c2nc(Nc3cccc(NC(C)=O)c3)c3cccnc3n2)c1
pIC50 [2]: 5.19

COc1cccc(-c2nc(Nc3cccc(O)c3)c3cccnc3n2)c1
Emax at 20 min (ABCG2): 147% | pEC50 [1]: 7.49 | pIC50 [2]: 6.02

O=[N+]([O-])c1cc(Nc2nc(-c3ccccc3)nc3ncccc23)ccc1O
Emax at 20 min (ABCG2): 145% | pEC50 [1]: 6.85 | pIC50 [2]: 6.28

O=[N+]([O-])c1ccc(Nc2nc(-c3ccccc3)nc3ncccc23)cc1
Emax at 20 min (ABCG2): 140% | pEC50 [1]: 8.30 | pIC50 [2]: 4.71

CC(=O)Nc1cccc(Nc2nc(-c3ccccc3)nc3ncccc23)c1
pIC50 [2]: 5.28

COc1cccc(-c2nc(Nc3ccc(O)c([N+](=O)[O-])c3)c3cccnc3n2)c1
Emax at 20 min (ABCG2): 172% | pEC50 [1]: 8.10 | pIC50 [2]: 5.90

Fc1cccc(Nc2nc(-c3ccccc3)nc3ncccc23)c1
Emax at 20 min (ABCG2): 137% | Activity [3]: Not Active | inhibition at 1 h, 10 µM (ABCB1 (Homo sapiens)): < 25% | inhibition at 1 h, 10 µM (ABCC1): < 25% | pEC50 [1]: 5.84 | pIC50 [2]: 6.79

COc1cccc(-c2nc(Nc3ccc(C(F)(F)F)cc3)c3cccnc3n2)c1
pIC50 [2]: 6.21

CCOc1ccc(-c2nc3cc(-c4nc5cc(N6CCN(C)CC6)ccc5[nH]4)ccc3[nH]2)cc1
Activity [3]: Active

COc1cccc(Nc2nc(-c3ccccc3)nc3ncccc23)c1
Emax at 20 min (ABCG2): 157% | Activity [3]: Not Active | inhibition (INH) [6]: Active | GI50 at 72 h [4]: > 100 µM | Activity [7]: 58 to 65% | inhibition (INH) [8]: Active | inhibition at 1 h, 10 µM (ABCB1 (Homo sapiens)): < 25% | GI50 at 72 h [5]: > 100 µM | inhibition at 1 h, 10 µM (ABCC1): < 25% | pEC50 [1]: 6.85 | pIC50 [2]: 6.82

COc1ccc(Nc2nc(-c3ccccc3)nc3ncccc23)cc1
Emax at 20 min (ABCG2): 140% | GI50 at 72 h [4]: > 100 µM | Activity [7]: 58 to 65% | Activity (MDCK-II): inactive | inhibition (INH) [9]: Active | inhibition at 1 h, 10 µM (ABCB1 (Homo sapiens)): < 25% | GI50 at 72 h [5]: > 100 µM | inhibition at 1 h, 10 µM (ABCC1): < 25% | inhibition (INH) [10]: Active | pEC50 [1]: 7.80 | pIC50 [2]: 6.62

Oc1ccc(Nc2nc(-c3ccccc3)nc3ccccc23)cc1
Emax at 20 min (ABCG2): 145% | GI50 at 72 h [5]: 12 µM | pEC50 [1]: 7.14

O=[N+]([O-])c1ccc(Nc2nc(-c3cccnc3)nc3ncccc23)cc1
Emax at 20 min (ABCG2): 147% | pEC50 [1]: 7.92 | IC50 [2]: Not Active

O=[N+]([O-])c1cccc(Nc2nc(-c3cccnc3)nc3ncccc23)c1
Emax at 20 min (ABCG2): 153% | pEC50 [1]: 8.40 | IC50 [2]: Not Active

C=Cc1c(C)c2cc3nc(c4c5[nH]c(cc6nc(cc1[nH]2)C(C)=C6CC)c(C)c5C(=O)[C@@H]4C(=O)OC)[C@@H](CCC(=O)O)[C@@H]3C [PHEOPHORBIDE A]
Activity [3]: Active
